Entries after “also recorded” stand apart in the source; their conditions may differ.
Tests used:
CypD = CypD (Homo sapiens, UniProt P30405); experiment: chymotrypsin coupled PPIase assay (Suc-AAPF-AMC substrate), CypD inhibition; type: biochemical
Description: (§1) The selectivity of a compound described herein in inhibiting the activity of a first cyclophilin (e.g., CypD) over a second cyclophilin may be measured by the quotient of the IC50 value of the compound in inhibiting the activity of the second cyclophilin over the IC50 value of the compound in inhibiting the activity of the first cyclophilin. The selectivity of a compound described herein in modulating the activity of a first cyclophilin over a second cyclophilin may also be measured by the quotient of the Kd value of an adduct of the compound and the second cyclophilin over the Kd value of an adduct of the compound and the first cyclophilin (e.g., CypD). […] In certain embodiments, selectivity for inhibiting a first cyclophilin over other cyclophilins is measured by Surface Plasmon Resonance (SPR) assays as disclosed in the Examples.
(§2) Following the synthesis of the indicated library members, in vitro inhibition (IC50) assays of these hits were conducted to obtain IC50 inhibitory data. For the IC50 assays, a chymotrypsin coupled PPIase assay using Suc-AAPF-AMC as the peptide substrate was used, whereby isomerization of a peptide substrate Suc-AAPF-AMC from the cis to trans conformation allowed for proteolysis via excess a-chymotrypsin, releasing the C-terminal coumarin fluorophore.

[1] = tested on: 10 other cyclophilins with reported prolyl isomerase activity; experiment: cyclophilin specificity screen: CypD against the other cyclophilins; type: biochemical
Description: as §1, §2
Subsequently, to determine if the compounds could both access the S2 pocket and display CypD specificity, JOMBtrans and compound 49 were screened against the 10 other cyclophilins with reported prolyl isomerase activity. […] Co-crystal structures of JOMBtrans and 49 were solved with CypD.

NKTR = biological target: T1, NKTR (Homo sapiens, UniProt P30414); experiment: chymotrypsin coupled PPIase assay, NKTR inhibition; type: biochemical; details: result in words
T1 sequence (P30414 1-1462): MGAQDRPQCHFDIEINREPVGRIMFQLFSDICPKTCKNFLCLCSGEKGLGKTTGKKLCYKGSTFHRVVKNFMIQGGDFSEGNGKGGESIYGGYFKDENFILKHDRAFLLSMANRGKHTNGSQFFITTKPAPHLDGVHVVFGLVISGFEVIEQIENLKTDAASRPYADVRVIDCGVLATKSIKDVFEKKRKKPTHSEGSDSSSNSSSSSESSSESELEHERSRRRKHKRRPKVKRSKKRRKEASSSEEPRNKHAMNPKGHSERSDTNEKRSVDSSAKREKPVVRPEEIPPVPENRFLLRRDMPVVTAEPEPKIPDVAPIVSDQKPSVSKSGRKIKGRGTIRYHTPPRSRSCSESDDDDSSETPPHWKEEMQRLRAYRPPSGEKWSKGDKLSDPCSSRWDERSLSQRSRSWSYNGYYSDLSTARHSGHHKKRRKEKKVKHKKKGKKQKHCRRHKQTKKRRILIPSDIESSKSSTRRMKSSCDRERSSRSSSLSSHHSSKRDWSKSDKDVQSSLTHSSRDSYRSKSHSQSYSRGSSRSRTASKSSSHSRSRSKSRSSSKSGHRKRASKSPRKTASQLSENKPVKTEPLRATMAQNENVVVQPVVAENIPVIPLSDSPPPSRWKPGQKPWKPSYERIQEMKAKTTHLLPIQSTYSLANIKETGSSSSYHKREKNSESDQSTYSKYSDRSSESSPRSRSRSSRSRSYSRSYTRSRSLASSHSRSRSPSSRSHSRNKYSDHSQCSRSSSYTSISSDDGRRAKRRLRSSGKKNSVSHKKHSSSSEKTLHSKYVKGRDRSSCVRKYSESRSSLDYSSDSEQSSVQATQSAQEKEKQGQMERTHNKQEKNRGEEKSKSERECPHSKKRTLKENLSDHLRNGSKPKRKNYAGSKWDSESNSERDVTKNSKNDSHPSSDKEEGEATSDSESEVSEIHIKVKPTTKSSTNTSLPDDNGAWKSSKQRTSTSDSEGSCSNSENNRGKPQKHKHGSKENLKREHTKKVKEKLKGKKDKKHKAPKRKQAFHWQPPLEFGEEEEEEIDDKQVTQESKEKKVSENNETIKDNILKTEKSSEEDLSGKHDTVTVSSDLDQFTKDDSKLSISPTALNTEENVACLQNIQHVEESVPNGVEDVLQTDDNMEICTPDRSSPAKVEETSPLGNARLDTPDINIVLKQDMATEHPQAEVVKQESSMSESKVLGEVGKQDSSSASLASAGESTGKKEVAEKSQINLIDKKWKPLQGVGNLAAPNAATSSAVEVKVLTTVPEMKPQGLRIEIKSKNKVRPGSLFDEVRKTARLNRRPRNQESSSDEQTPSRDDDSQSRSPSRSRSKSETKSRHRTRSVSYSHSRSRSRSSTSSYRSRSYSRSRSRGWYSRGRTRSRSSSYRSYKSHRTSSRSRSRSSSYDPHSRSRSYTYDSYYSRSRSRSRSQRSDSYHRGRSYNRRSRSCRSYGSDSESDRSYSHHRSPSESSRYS
Description: (§3) Following the synthesis of the indicated library members, in vitro inhibition (IC50) assays of these hits were conducted to obtain IC50 inhibitory data. For the IC50 assays, a chymotrypsin coupled PPIase assay using Suc-AAPF-AMC as the peptide substrate was used, whereby isomerization of a peptide substrate Suc-AAPF-AMC from the cis to trans conformation allowed for proteolysis via excess a-chymotrypsin, releasing the C-terminal coumarin fluorophore. […] Other non-inhibitor library members were also checked for binding via SPR, but produced the same profile as the prolyl isomerase assay.
(§4) Subsequently, to determine if the compounds could both access the S2 pocket and display CypD specificity, JOMBtrans and compound 49 were screened against the 10 other cyclophilins with reported prolyl isomerase activity. […] Co-crystal structures of JOMBtrans and 49 were solved with CypD. […] Three further H-bonds with the macrocycle's backbone and CypD were observed along with a cation-n interaction. […] The benzyl group on the piperidine ring altered the conformation of the macrocycle to open up two new hydrogen bonding interactions with CypD. […] This improvement in specificity compared to JOMBtrans signified that more CypD specific compounds can be garnered by derivatization into the S2 pocket.

CypG = biological target: T2, CypG (Homo sapiens, UniProt Q13427); experiment: chymotrypsin coupled PPIase assay, CypG inhibition; type: biochemical; details: result in words
T2 sequence (Q13427 1-754): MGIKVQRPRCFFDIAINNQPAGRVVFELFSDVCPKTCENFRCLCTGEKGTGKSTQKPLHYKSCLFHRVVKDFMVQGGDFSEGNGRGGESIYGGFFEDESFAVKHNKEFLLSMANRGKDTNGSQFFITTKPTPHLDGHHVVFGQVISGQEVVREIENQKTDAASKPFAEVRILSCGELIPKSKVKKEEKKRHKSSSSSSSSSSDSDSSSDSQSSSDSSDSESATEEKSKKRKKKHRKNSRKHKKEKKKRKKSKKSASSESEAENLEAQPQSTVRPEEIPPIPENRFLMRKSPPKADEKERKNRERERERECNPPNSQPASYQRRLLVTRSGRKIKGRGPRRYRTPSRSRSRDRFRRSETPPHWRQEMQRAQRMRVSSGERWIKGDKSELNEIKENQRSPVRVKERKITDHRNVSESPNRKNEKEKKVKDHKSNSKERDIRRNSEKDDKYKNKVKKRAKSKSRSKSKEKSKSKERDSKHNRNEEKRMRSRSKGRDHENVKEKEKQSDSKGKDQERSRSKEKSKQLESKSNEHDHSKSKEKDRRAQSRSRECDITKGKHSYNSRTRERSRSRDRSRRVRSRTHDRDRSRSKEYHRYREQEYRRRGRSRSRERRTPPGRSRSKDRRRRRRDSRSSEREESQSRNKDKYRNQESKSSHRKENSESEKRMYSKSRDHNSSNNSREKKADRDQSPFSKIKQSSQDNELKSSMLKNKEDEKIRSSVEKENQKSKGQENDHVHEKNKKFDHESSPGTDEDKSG
Description: as §3, §4

PPWD1 = biological target: T3, PPWD1 (Homo sapiens, UniProt Q96BP3); experiment: chymotrypsin coupled PPIase assay, PPWD1 inhibition; type: biochemical; details: result in words
T3 sequence (Q96BP3 1-646): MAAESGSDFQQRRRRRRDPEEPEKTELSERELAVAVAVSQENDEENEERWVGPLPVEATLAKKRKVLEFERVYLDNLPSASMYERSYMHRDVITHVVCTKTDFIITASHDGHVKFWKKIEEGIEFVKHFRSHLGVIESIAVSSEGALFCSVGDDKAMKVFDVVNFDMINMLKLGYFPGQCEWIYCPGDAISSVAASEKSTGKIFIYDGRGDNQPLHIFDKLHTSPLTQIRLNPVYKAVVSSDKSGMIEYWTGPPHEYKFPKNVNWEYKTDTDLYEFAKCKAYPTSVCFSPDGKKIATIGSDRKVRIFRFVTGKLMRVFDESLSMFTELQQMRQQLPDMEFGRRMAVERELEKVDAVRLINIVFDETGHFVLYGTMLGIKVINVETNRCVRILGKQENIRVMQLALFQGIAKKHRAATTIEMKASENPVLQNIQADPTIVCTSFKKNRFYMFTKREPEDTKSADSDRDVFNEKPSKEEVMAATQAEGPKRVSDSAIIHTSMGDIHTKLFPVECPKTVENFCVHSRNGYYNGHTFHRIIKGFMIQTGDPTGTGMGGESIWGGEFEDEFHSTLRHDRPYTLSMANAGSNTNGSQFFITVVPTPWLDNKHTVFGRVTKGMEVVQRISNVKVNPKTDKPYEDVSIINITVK
Description: as §3, §4

CypH = CypH (Homo sapiens, UniProt O43447); experiment: chymotrypsin coupled PPIase assay, CypH inhibition; type: biochemical; details: result in words
Chain of CypH (O43447 whole entry): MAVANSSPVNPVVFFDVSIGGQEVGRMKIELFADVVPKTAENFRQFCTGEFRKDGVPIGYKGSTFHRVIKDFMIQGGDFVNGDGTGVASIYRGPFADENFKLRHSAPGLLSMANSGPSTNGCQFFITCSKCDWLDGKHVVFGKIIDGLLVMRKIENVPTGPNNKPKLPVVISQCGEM
Description: as §3, §4

[2] = tested on: mPTP in isolated mice kidney mitochondria; experiment: inhibition of mPTP in isolated mitochondria (tolerated Ca2+ pulses before full mPTP opening); details: result in words
Description: In isolated mice kidney mitochondria, the maximum number of Ca^2+ pulses that could be tolerated before full mPTP opening was measured (see FIG. 24).

Chain of CypD (P30405 30-207): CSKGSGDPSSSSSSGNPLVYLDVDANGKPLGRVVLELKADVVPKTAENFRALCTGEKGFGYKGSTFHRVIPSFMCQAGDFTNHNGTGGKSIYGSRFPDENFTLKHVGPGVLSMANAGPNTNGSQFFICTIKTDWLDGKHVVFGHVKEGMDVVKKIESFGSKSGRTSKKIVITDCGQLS

Q: Which “increase in potency compared to JOMBtrans” value (CypD) does the source give for `NCCOCCNC(=O)[C@@H]1CCNC(=O)/C=C/C(=O)N2CCC[C@](Cc3ccccc3)(C2)C(=O)N[C@@H](Cc2ccco2)C(=O)NCc2ccccc2CC(=O)N1` [compound 49] here?
A: 75 fold

Q: And the IC50 (CypD; read-out: potency for CypD)?
A: 200 nM

Q: And the “potency for CypD (in words)” value (CypD; result in words)?
A: low potency

Q: What about the “specificity for CypD compared to any other cyclophilins” value [1] of the same molecule?
A: approximately 10 fold

Q: What about the “decrease in inhibition against other family members compared to CypD” value ([1]; result in words) of the same molecule?
A: at most a ten-fold decrease

Q: What about the “specificity / selectivity profile for CypD (in words)” value (from here on “specificity / selectivity profile”) ([1]; result in words) of the same molecule?
A: low specificity; also recorded: very promiscuous cyclophilin inhibition

Q: With `Cc1cc(C(=O)O)ccc1-c1ccc(C[C@@H]2NC(=O)[C@]3(Cc4ccccc4)CCCN(C3)C(=O)/C=C/C(=O)NCC[C@@H](C(=O)NCCOCCN)NC(=O)Cc3ccccc3CNC2=O)cc1` [A-57] as the molecule, how does the “specificity / selectivity profile” value ([1]; result in words) read?
A: best specificity profiles; also recorded: preference for CypD

Q: `NCCOCCNC(=O)[C@@H]1CCNC(=O)/C=C/C(=O)N2CCC[C@](Cc3ccccc3)(C2)C(=O)N[C@@H](Cc2ccc(-c3ccc(C(=O)O)cc3)cc2)C(=O)NCc2ccccc2CC(=O)N1` [A-54] was tested. Which “specificity / selectivity profile” value ([1]; result in words) did it give?
A: best specificity profiles; also recorded: preference for CypD

Q: Which “inhibition of NKTR” value (NKTR) does the source give for `NCCOCCNC(=O)[C@@H]1CCNC(=O)/C=C/C(=O)N2CCC[C@](Cc3ccccc3)(C2)C(=O)N[C@@H](Cc2ccc(C(=O)c3ccccc3)cc2)C(=O)NCc2ccccc2CC(=O)N1` [A-1] here?
A: abolished inhibition

Q: What about the “inhibition of CypG” value (CypG) of the same molecule?
A: abolished inhibition

Q: And the “inhibition of PPWD1” value (PPWD1)?
A: abolished inhibition

Q: And the “inhibition of CypH” value (CypH)?
A: abolished inhibition

Q: How did the “specificity / selectivity profile” value ([1]; result in words) turn out when `NCCOCCNC(=O)[C@@H]1CCNC(=O)/C=C/C(=O)N2CCC[C@](Cc3ccccc3)(C2)C(=O)N[C@@H](Cc2ccc(-c3ccc(/C=C/C(=O)O)cc3)cc2)C(=O)NCc2ccccc2CC(=O)N1` [A-82] was run?
A: preference for CypD

Q: Which “number of tolerated Ca2+ pulses before full mPTP opening” value [2] does the source give for `CC(=O)c1ccc(-c2ccc(C[C@@H]3NC(=O)[C@]4(Cc5ccccc5)CCCN(C4)C(=O)/C=C/C(=O)NCC[C@@H](C(N)=O)NC(=O)Cc4ccccc4CNC3=O)cc2)cc1` [A-22b] here?
A: extended pulse number

Q: How did the “inhibition of NKTR” value (NKTR) turn out when `CC(C)(C)c1ccc(C[C@@H]2NC(=O)[C@]3(Cc4ccccc4)CCCN(C3)C(=O)/C=C/C(=O)NCC[C@@H](C(=O)NCCOCCN)NC(=O)Cc3ccccc3CNC2=O)cc1` [A-9] was run?
A: abolished inhibition

Q: What about the “inhibition of CypG” value (CypG) of the same molecule?
A: abolished inhibition

Q: And the “inhibition of PPWD1” value (PPWD1)?
A: abolished inhibition

Q: What about the “inhibition of CypH” value (CypH) of the same molecule?
A: abolished inhibition

Q: With `NCCOCCNC(=O)[C@@H]1CCNC(=O)/C=C/C(=O)N2CCC[C@](Cc3ccccc3)(C2)C(=O)N[C@@H](Cc2ccc(-c3ccc(CC(=O)O)cc3)cc2)C(=O)NCc2ccccc2CC(=O)N1` [A-63] as the molecule, how does the “specificity / selectivity profile” value ([1]; result in words) read?
A: preference for CypD

Q: Which “number of tolerated Ca2+ pulses before full mPTP opening” value [2] does the source give for `NC(=O)[C@@H]1CCNC(=O)/C=C/C(=O)N2CCC[C@](Cc3ccccc3)(C2)C(=O)N[C@@H](Cc2ccc(-c3ccc(CCC(=O)O)cc3)cc2)C(=O)NCc2ccccc2CC(=O)N1` [A-81b] here?
A: extended pulse number; also recorded: almost as potent as CsA

— patent US20230117680A1, “CYCLOPHILIN D INHIBITORS AND USES THEREOF” (The Broad Institute, Inc., priority 2019, published 2023)
